Source: PubChem BioAssay AID212 (DTP/NCI, 2004)
“And” between values parts separate entries of the source, which are not always exact repeats. Equal entries are not always repeated. Results filed as inconclusive are left out.

System: BDF1 mice, colon carcinoma 38 sc, T/C %
Assay: NCI In Vivo Anticancer Drug Screen. Data for tumor model Colon Carcinoma 38 (subcutaneous) in B6D2F1 (BDF1) mice
Settings: endpoint: median tumor weight (est.), higher = larger tumour
Summary of the method: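 Ratio of survival or tumor size, compound-treated animals relative to vehicle controls, in tumor-bearing mice.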

[1] = dose: 4.0 mg/kg/injection, schedule: Q07DX002 (ip), vehicle: saline
[2] = dose: 8.0 mg/kg/injection, schedule: Q07DX002 (ip), vehicle: saline
[3] = dose: 16.0 mg/kg/injection, schedule: Q07DX002 (ip), vehicle: saline
[4] = dose: 4.0 mg/kg/injection, schedule: Q07DX002 (ip), vehicle: water

With `O=CC(NC(=O)N(CCCl)N=O)C(O)C(O)C(O)CO` (stereo not drawn) as the molecule, how does the T/C (dose: 0.47 mg/kg/injection, schedule: Q07DX003 (ip), vehicle: saline) read?
The T/C was 102 % of control.

What about the T/C (dose: 0.94 mg/kg/injection, schedule: Q07DX003 (ip), vehicle: saline) of the same molecule?
Its T/C is 98 % of control.

What about the T/C (dose: 1.5 mg/kg/injection, schedule: Q07DX002 (ip), vehicle: saline) of the same molecule?
Its T/C is 105 % of control.

What about the T/C (dose: 3.75 mg/kg/injection, schedule: Q07DX003 (ip), vehicle: saline) of the same molecule?
Its T/C is 68 % of control.

What about the T/C [1] of the same molecule?
The T/C was 92 % of control.

What about the T/C (dose: 6.0 mg/kg/injection, schedule: Q07DX003 (ip), vehicle: saline) of the same molecule?
The T/C was 68 % of control.

What about the T/C (dose: 7.5 mg/kg/injection, schedule: Q07DX003 (ip), vehicle: saline) of the same molecule?
Its T/C is 68 % of control.

What about the T/C [2] of the same molecule?
The T/C was 57 % of control.

What about the T/C (dose: 12.0 mg/kg/injection, schedule: Q07DX003 (ip), vehicle: saline) of the same molecule?
The T/C was 82 % of control.

And the T/C (dose: 15.0 mg/kg/injection, schedule: Q07DX003 (ip), vehicle: saline)?
The T/C was 43 % of control.

What about the T/C [3] of the same molecule?
Its T/C is 43 % of control.

And the T/C (dose: 24.0 mg/kg/injection, schedule: Q07DX003 (ip), vehicle: saline)?
Its T/C is 57 % of control.

How did the T/C (dose: 12.5 mg/kg/injection, schedule: Q07DX002 (ip), vehicle: Klucel (hydroxypropylcellulose) (HPC)) turn out when `CC(=O)OCC1OC(OC2=C(CC=C(C)C)C(=O)c3ccccc3C2=O)C(OC(C)=O)C(OC(C)=O)C1OC(C)=O` (stereo not drawn) was run?
Its T/C is 205 % of control and 81 % of control.

And the T/C (dose: 25.0 mg/kg/injection, schedule: Q07DX002 (ip), vehicle: Klucel (hydroxypropylcellulose) (HPC))?
Its T/C is 181 % of control.

And the T/C (dose: 50.0 mg/kg/injection, schedule: Q07DX002 (ip), vehicle: Klucel (hydroxypropylcellulose) (HPC))?
Its T/C is 113 % of control and 103 % of control.

What about the T/C (dose: 100.0 mg/kg/injection, schedule: Q07DX002 (ip), vehicle: Klucel (hydroxypropylcellulose) (HPC)) of the same molecule?
Its T/C is 151 % of control.

And the T/C (dose: 200.0 mg/kg/injection, schedule: Q07DX002 (ip), vehicle: Klucel (hydroxypropylcellulose) (HPC))?
The T/C was 190 % of control.

How did the T/C (dose: 0.12 mg/kg/injection, schedule: Q07DX002 (ip), vehicle: water) turn out when `Cc1c2cc[n+](C)cc2c(C)c2c1[nH]c1ccc(O)cc12` was run?
The T/C was 119 % of control.

What about the T/C (dose: 0.25 mg/kg/injection, schedule: Q07DX002 (ip), vehicle: water) of the same molecule?
The T/C was 62 % of control.

And the T/C (dose: 0.5 mg/kg/injection, schedule: Q07DX002 (ip), vehicle: water)?
The T/C was 69 % of control.

What about the T/C (dose: 0.63 mg/kg/injection, schedule: Q07DX002 (ip), vehicle: water) of the same molecule?
Its T/C is 67 % of control.

What about the T/C (dose: 1.0 mg/kg/injection, schedule: Q07DX002 (ip), vehicle: water) of the same molecule?
Its T/C is 123 % of control.

What about the T/C (dose: 1.25 mg/kg/injection, schedule: Q07DX002 (ip), vehicle: water) of the same molecule?
The T/C was 52 % of control.

What about the T/C (dose: 1.5 mg/kg/injection, schedule: Q07DX002 (ip), vehicle: water) of the same molecule?
Its T/C is 116 % of control.

And the T/C (dose: 2.5 mg/kg/injection, schedule: Q07DX002 (ip), vehicle: water)?
The T/C was 72 % of control.

And the T/C (dose: 3.0 mg/kg/injection, schedule: Q07DX002 (ip), vehicle: water)?
The T/C was 122 % of control.

And the T/C [4]?
The T/C was 70 % of control.

And the T/C (dose: 5.0 mg/kg/injection, schedule: Q07DX002 (ip), vehicle: water)?
Its T/C is 71 % of control.

Which results are given for `c1cnc2ncncc2n1`?
T/C (dose: 6.25 mg/kg/injection, schedule: Q07DX002 (ip), vehicle: saline with Tween-80): 88 % of control; T/C (dose: 12.5 mg/kg/injection, schedule: Q07DX002 (ip), vehicle: saline with Tween-80): 83 % of control and 95 % of control; T/C (dose: 100.0 mg/kg/injection, schedule: Q07DX002 (ip), vehicle: saline with Tween-80): 80 % of control and 89 % of control; T/C (dose: 100.0 mg/kg/injection, schedule: Q07DX002 (ip), vehicle: saline): 124 % of control; T/C (dose: 200.0 mg/kg/injection, schedule: Q07DX002 (ip), vehicle: saline with Tween-80): 73 % of control and 88 % of control; T/C (dose: 200.0 mg/kg/injection, schedule: Q07DX002 (ip), vehicle: saline): 181 % of control

For `COc1cccc2c1C(=O)c1c(O)c3c(c(O)c1C2=O)C[C@@](O)(/C(C)=N/NC(=O)c1ccccc1)C[C@@H]3OC1CC(N)C(O)C(C)O1` (stereo partly drawn), which T/C (dose: 2.0 mg/kg/injection, schedule: Q07DX002 (ip), vehicle: water) is on record?
Its T/C is 100 % of control.

What about the T/C [4] of the same molecule?
The T/C was 107 % of control.

What about the T/C (dose: 8.0 mg/kg/injection, schedule: Q07DX002 (ip), vehicle: water) of the same molecule?
The T/C was 102 % of control.

What about the T/C (dose: 16.0 mg/kg/injection, schedule: Q07DX002 (ip), vehicle: water) of the same molecule?
Its T/C is 16 % of control.

Which results are given for `C=C1C(=O)OCC1C(=O)O` (stereo not drawn)?
T/C [1]: 290 % of control; T/C [2]: 281 % of control; T/C [3]: 297 % of control; T/C (dose: 32.0 mg/kg/injection, schedule: Q07DX002 (ip), vehicle: saline): 278 % of control; T/C (dose: 64.0 mg/kg/injection, schedule: Q07DX002 (ip), vehicle: saline): 344 % of control
